How the values were obtained:
Assay in all cases: Cell viability drug screen, 12-point dose-response AUC
Format in all cases: cell-based, human
FU97 = tested on: FU97; design: Average Area Under the Viability Curve (AUC), AUC norm value: scale not given here; conditions: FU97 cells; 72 hours
Summary of the method: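 Trapezoidal AUC of a 12-point, DMSO-normalized dose-response curve. Luminescent viability was measured after 72 h of exposure at 37° C to half-log serial dilutions (0.5% DMSO control), dosed 24 h after plating FU97 cells at 5×10^3 per well.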

SNU1967 = SNU1967 cells; 72 hours
Summary of the method: (§1)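 AUC values represent the area under DMSO-normalized 12-point curves, computed by trapezoid rule and averaged over repeated experiments. Each EMT-type gastric line was exposed to half-log serial concentrations for 72 h at 37 °C, and viability was measured with a Glo luminescence kit.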

SNU638 = SNU638 cells; 72 hours
Summary of the method: as §1

AGS = AGS cells (non-SEM subtype); 72 hours
Summary of the method: (§2)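 Dose-response AUC reflects 72 h drug exposure of gastric cancer cells in a 12-point, half-log format, with viability read by luminescence and normalized to DMSO (0.5%).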

YCC3 = YCC3 cells; 72 hours
Summary of the method: as §1

MKN45 = MKN45 cells (non-SEM subtype); 72 hours
Summary of the method: as §2

NCC24 = NCC24 cells; 72 hours
Summary of the method: as §1

SNU1750 = SNU1750 cells (SEM subtype); 72 hours
Summary of the method: as §1

SNU1 = SNU1 cells; 72 hours
Summary of the method: as §1

MKN1 = MKN1 cells; 72 hours
Summary of the method: as §1

SNU484 = SNU484 cells (SEM subtype); 72 hours
Summary of the method: as §1

SNU620 = SNU620 cells; 72 hours
Summary of the method: as §1

NCC19 = NCC19 cells; 72 hours
Summary of the method: as §1

NCC20 = NCC20 cells; 72 hours
Summary of the method: as §1

YCC11 = YCC11 cells (SEM subtype); 72 hours
Summary of the method: as §1

KATO3 = KATO3 cells; 72 hours
Summary of the method: as §1

SNU216 = SNU216 cells (non-SEM subtype); 72 hours
Summary of the method: as §2

Hs746T = Hs746T cells (SEM subtype); 72 hours
Summary of the method: as §1

YCC2 = YCC2 cells; 72 hours
Summary of the method: as §1

MKN74 = MKN74 cells; 72 hours
Summary of the method: as §2

NCI_N87 = NCI_N87 cells; 72 hours
Summary of the method: as §1

OCUM1 = OCUM1 cells; 72 hours
Summary of the method: as §1

SNU719 = SNU719 cells; 72 hours
Summary of the method: as §2

MKN28 = MKN28 cells; 72 hours
Summary of the method: as §1

SK4 = SK4 cells (SEM subtype); 72 hours
Summary of the method: as §1

SNU601 = SNU601 cells; 72 hours
Summary of the method: as §1

NCC59 = NCC59 cells; 72 hours
Summary of the method: as §1

SNU668 = SNU668 cells (SEM subtype); 72 hours
Summary of the method: as §1

SNU16 = SNU16 cells; 72 hours
Summary of the method: as §1

SMILES	Average Area Under the Viability Curve (AUC), AUC norm value (FU97)	Average Area Under the Viability Curve (AUC), AUC norm value (SNU1967)	Average Area Under the Viability Curve (AUC), AUC norm value (SNU638)	Average Area Under the Viability Curve (AUC), AUC norm value (AGS)	Average Area Under the Viability Curve (AUC), AUC norm value (YCC3)	Average Area Under the Viability Curve (AUC), AUC norm value (MKN45)	Average Area Under the Viability Curve (AUC), AUC norm value (NCC24)	Average Area Under the Viability Curve (AUC), AUC norm value (SNU1750)	Average Area Under the Viability Curve (AUC), AUC norm value (SNU1)	Average Area Under the Viability Curve (AUC), AUC norm value (MKN1)	Average Area Under the Viability Curve (AUC), AUC norm value (SNU484)	Average Area Under the Viability Curve (AUC), AUC norm value (SNU620)	Average Area Under the Viability Curve (AUC), AUC norm value (NCC19)	Average Area Under the Viability Curve (AUC), AUC norm value (NCC20)	Average Area Under the Viability Curve (AUC), AUC norm value (YCC11)	Average Area Under the Viability Curve (AUC), AUC norm value (KATO3)	Average Area Under the Viability Curve (AUC), AUC norm value (SNU216)	Average Area Under the Viability Curve (AUC), AUC norm value (Hs746T)	Average Area Under the Viability Curve (AUC), AUC norm value (YCC2)	Average Area Under the Viability Curve (AUC), AUC norm value (MKN74)	further results
O=C(Nc1ccc([N+](=O)[O-])cc1Cl)c1cc(Cl)ccc1O [Niclosamide (Niclocide), Niclosamide]	−1.793	0.1419	−1.105	−1.094	1.8253	1.159	0.68	−0.8987	−1.673	0.3991	−1.164	0.8518	2.917	0.2177	−0.8753	1.591	−0.5185	−0.6858	0.6628	−1.62	Average Area Under the Viability Curve (AUC), AUC norm value (NCI_N87): 2.802; Average Area Under the Viability Curve (AUC), AUC norm value (OCUM1): 0; Average Area Under the Viability Curve (AUC), AUC norm value (SNU719): 2.503; Average Area Under the Viability Curve (AUC), AUC norm value (MKN28): −0.3809; Average Area Under the Viability Curve (AUC), AUC norm value (SK4): −1.038; Average Area Under the Viability Curve (AUC), AUC norm value (SNU601): 4.911; Average Area Under the Viability Curve (AUC), AUC norm value (NCC59): 1.141; Average Area Under the Viability Curve (AUC), AUC norm value (SNU668): −0.9084; Average Area Under the Viability Curve (AUC), AUC norm value (SNU16): −3.062
COC(=O)Nc1nc2ccc(C(=O)c3cccs3)cc2[nH]1 [Nocodazole]	0.3797	−0.07292	−0.1875	−1.573	3.066	2.005	0	0.7502	−0.7242	−0.6519	−0.8136	−0.735	0.8717	−1.695	−0.8279	3.188	2.032	1.28	1.3363	0.7081	Average Area Under the Viability Curve (AUC), AUC norm value (NCI_N87): −0.7843; Average Area Under the Viability Curve (AUC), AUC norm value (OCUM1): 0.7248; Average Area Under the Viability Curve (AUC), AUC norm value (SNU719): 4.976; Average Area Under the Viability Curve (AUC), AUC norm value (MKN28): −0.1478; Average Area Under the Viability Curve (AUC), AUC norm value (SK4): −0.374; Average Area Under the Viability Curve (AUC), AUC norm value (SNU601): 1.743; Average Area Under the Viability Curve (AUC), AUC norm value (NCC59): 3.0345; Average Area Under the Viability Curve (AUC), AUC norm value (SNU668): −0.1188; Average Area Under the Viability Curve (AUC), AUC norm value (SNU16): −1.507
